What was measured:
FaDu cells [1] = test: CCK assay, cell proliferation; assay type: cell-based, human; settings: 0.5-4 µM, 48 hours, absorbance at 450 nm, FIG. 1
Method: (§1) FaDu cells and squamous cell carcinoma-25 (SCC-25) cells, which are human head and neck cancer cell lines, were seeded in 96-well plates at a density of 1 x 10^5 cells/well and cultured for 24 hours. Thereafter, the cells were treated with compound AON-MG23 of the present invention at various concentrations and cultured for 48 hours. The cells were treated with the compound of the present invention at various concentrations of 0 µM, 0.5 µM, 1 µM, 2 µM, and 4 µM. 10 µL of cell counting kit (CCK) reagent was added and allowed to react for one hour, and then the absorbance was measured at 450 nm.

SCC-25 cells [2] = test: CCK assay, cell proliferation; assay type: cell-based, human; settings: 0.5-4 µM, 48 hours, absorbance at 450 nm, FIG. 1
Method: as §1

FaDu cells [3] = test: drug combination effect, SRB assay with Bliss scoring; assay type: cell-based, human; settings: five days co-treatment, score > 0 = synergistic
Method: The combination effect of compound AON-MG23 of the present invention was confirmed using Bliss scoring based on the results of the sulforhodamine B assay (SRB assay). Specifically, human head and neck cancer cell line FaDu cells were plated in a 96-well cell culture plate at a density of 1 x 10^3 cells/well. On the next day, in order to confirm the combination effect with compound AON-MG23 of the present invention, a drug, paclitaxel or osimertinib, was diluted to concentrations for testing, and cells were treated with the diluted drug and then cultured for five days. […] The absorbance of the dissolved solution was measured at 540 nm using a plate reader. The measured absorbance values were compared to the control group and converted into percentages, and the combination effect was analyzed using the percentage data at an analysis website (https://synergyfinder.fimm.fi/). The presence of a combination effect was evaluated according to the following criteria based on relevant literature (Bliss, C. I. (1939). The toxicity of poisons applied jointly. Annals of Applied Biology, 26(3), 585-615.): a score > 0 indicates a synergistic effect; a score = 0 indicates an independent effect; and a score < 0 indicates an antagonistic effect.

ANO1 protein = test: Western blot of protein expression; assay type: cell-based, human; settings: 48 hours, concentration-dependent
Method: (§2) Human head and neck cancer cell lines, FaDu cells and SCC-25 cells, were seeded in 60 mm dishes at a density of 5 × 10^5 cells and cultured for 24 hours. Thereafter, the FaDu cells were treated with compound AON-MG23 of the present invention at concentrations of 0 µM, 0.25 µM, 0.5 µM, 1 µM, 2 µM, and 4 µM, and the SCC-25 cells were treated with the compound at concentrations of 0 µM, 0.25 µM, 0.5 µM, 1 µM, and 2 µM. The cells were cultured for 48 hours. After culture, the cells were recovered, and the recovered cells were lysed to perform Western blot. As antibodies used for Western blot, an anti-ANO1 antibody (Abcam, ab53212), an anti-EGFR antibody (Cell Signaling, #4267S), and an anti-glyceraldehyde 3-phosphate dehydrogenase (GAPDH) antibody (Santacruz, #SC-5286) were used. Protein concentration was quantified using the […] (Protein Quantitation Assay, BSA assay) (Pierce, Cat.23225). After lysing the cells, the proteins obtained therefrom were separated by molecular weight using 10% sodium dodecyl sulfate-polyacrylamide gel electrophoresis (SDS-PAGE) with equal amounts (20 µg). After transferring the proteins to a polyvinylidene fluoride (PVDF) membrane (Bio-Rad), the proteins were treated with a 5% blocking buffer (5% skim milk in Tris-buffered saline (TBS) buffer containing 0.1% Tween 20 (TBS-T)) at room temperature for one hour. Subsequently, the membrane was treated with a primary antibody, which was allowed to react at 4 °C for 16 hours. After the reaction was complete, the membrane was washed three times with TBS-T. Subsequently, the membrane was treated with a secondary antibody labeled with horseradish peroxidase at room temperature for one hour and then visualized using an enhanced chemiluminescence (ECL) kit (Bio-Rad). The amount of each protein was quantified and analyzed using Image J software.

EGFR protein = test: Western blot of protein expression; assay type: cell-based, human; settings: 48 hours, concentration-dependent
Method: as §2

FaDu cells [4] = test: Matrigel Transwell invasion assay; assay type: cell-based, human; settings: 0.25-2 µM, 24 hours, FIG. 4A
Method: (§3) Human head and neck cancer cell lines, FaDu cells and SCC-25 cells, were seeded at a density of 6 x 10^4 cells/well on top of filters coated with Matrigel (Transwell invasion chamber, Corning). Thereafter, the FaDu cells were treated with compound AON-MG23 of the present invention at concentrations of 0 µM, 0.25 µM, 0.5 µM, 1 µM, and 2 µM, and the SCC-25 cells were also treated with the compound at concentrations of 0 µM, 0.25 µM, 0.5 µM, 1 µM, and 2 µM. Cells were cultured in a CO2 in an incubator at 37 °C for 24 hours. After culture, cell fixation and staining were performed using the Diff-Quick stain Kit (Sysmex, Kobe, Japan). The stained cells were imaged under a microscope, and the cells were counted and statistically analyzed using Image J software.

SCC-25 cells [5] = test: Matrigel Transwell invasion assay; assay type: cell-based, human; settings: 0.25-2 µM, 24 hours, FIG. 4B
Method: as §3

FaDu cells [6] = test: cell migration assay (SPLScar Block plates); assay type: cell-based; settings: Homo sapiens, 17 hours, FIG. 3A, read-out: inhibition of migration compared to the control group
Method: (§4) Human head and neck cancer cell lines, FaDu cells and SCC-25 cells, were seeded in SPLScar Block plates (SPL) at a density of 7.2 x 10^4/well and cultured for 24 hours. After 24 hours, the blocks were removed, and at the same time, compound AON-MG23 of the present invention was applied at various concentrations. Thereafter, cells were cultured in a CO2 incubator at 37 °C for 17 hours. Specifically, the FaDu cells were treated with compound AON-MG23 of the present invention at concentrations of 0 µM, 0.25 µM, 0.5 µM, 1 µM, and 2 µM, and the SCC-25 cells were also treated at concentrations of 0 µM, 0.25 µM, 0.5 µM, 1 µM, and 2 µM. Photographs were taken before and after each culture, and the migration distance of the cells was measured using Image J software. Based on the results, the inhibition of the cell migration was analyzed.

SCC-25 cells [7] = test: cell migration assay (SPLScar Block plates); assay type: cell-based; settings: Homo sapiens, 17 hours, FIG. 3B, read-out: inhibition of migration compared to the control group
Method: as §4

FaDu cells [8] = test: clonogenic assay; assay type: cell-based, human; settings: 0.125-1 µM, nine days, FIG. 2
Method: To confirm the proliferation inhibitory effect of compound AON-MG23 of the present invention on head and neck cancer cells, a clonogenic assay was conducted. Specifically, head and neck cancer cell line FaDu cells were plated in a 6-well cell culture plate at a density of 250 cells per well. On the next day, the cell culture medium was removed and replaced with a cell culture medium containing compound AON-MG23 of the present invention at concentrations of 0 µM, 0.125 µM, 0.25 µM, 0.5 µM, and 1 µM. After culturing the cells for nine days, the resulting cell colonies were stained and photographed, and then the cell colonies were counted and analyzed using Image J software.

[9] = SCC-25 cells, 0.25-2 µM, FIG. 5B

For COc1cc(N2CCC(N(C)C)CC2)ccc1Nc1ncc(Cl)c(Nc2ccccc2N(C2CC2)S(C)(=O)=O)n1 [AON-MG23, N-(2-((5-chloro-2-((4-(4-(dimethylamino)piperidin-1-yl)-2-methoxyphenyl)amino)pyrimidin-4-yl)amino)phenyl)-N-cyclopropylmethanesulfonamide], the “proliferation of head and neck cancer cells” value (FaDu cells [1]) was “inhibited the proliferation of head and neck cancer cells”, the “proliferation of head and neck cancer cells” value (SCC-25 cells [2]) was “inhibited the proliferation of head and neck cancer cells” and the Bliss synergy score (FaDu cells [3]; combination with osimertinib, FIG. 6B) was 19.25. The Bliss synergy score (FaDu cells [3]; combination with paclitaxel, FIG. 6A) was 6.72 points, the ANO1 protein level (ANO1 protein; FaDu cells, 0.25-4 µM, FIG. 5A) was “significantly inhibited” and the ANO1 protein level (ANO1 protein; [9]) was “significantly inhibited”. The EGFR protein level (EGFR protein; FaDu cells, 0.25-4 µM, FIG. 5A) was “significantly inhibited”, the EGFR protein level (EGFR protein; [9]) was “significantly inhibited” and the “degree of penetration into Matrigel” value (FaDu cells [4]) was “reduced degree of penetration into Matrigel compared to the untreated control group”. For the same compound, the “degree of penetration into Matrigel” value (SCC-25 cells [5]) was “reduced degree of penetration into Matrigel compared to the untreated control group”, the inhibition at 2 µM (FaDu cells [6]) was no less than 80% and the inhibition at 1 µM (SCC-25 cells [7]) was roughly 90%. The clonogenesis (FaDu cells [8]) was “clonogenesis of the FaDu cells was inhibited”.
